Experimental data from ChEMBL document CHEMBL1201862, “PubChem BioAssay data set” (2004).
Active and inactive are the calls of the source.

How the values were obtained:
[1] = HepG2 cell cytotoxicity, dose response, cytotoxicity control, cherry-picks, set 5 (AID 1053118); assay type: functional, cell-based
[2] = A549 cell cytotoxicity, dose response, cytotoxicity control, cherry-picks, 26 µM top dose (AID 1053119); assay type: functional, cell-based
[3] = fibronectin fibrillogenesis inhibitors in fibroblasts, dose response, AH1F cells, Alexa488-fibronectin fluorescence, cherry-pick, set 2 (AID 1117283); assay type: functional, cell-based
[4] = P. falciparum Dd2 growth inhibitors, dose response, SYBR Green, dry powder samples, set 4 (AID 1159572); assay type: functional, cell-based
[5] = HeLa 2N DNA content increase, dose response, cell-based, IC50 (AID 1117349); assay type: functional
[6] = Concentration-dependent survival of SW480 colon cancer line, luminescence detection with CellTiter-Glo, half-maximal inhibitory concentration (AID 1117338); assay type: functional
[7] = RKO cell viability reduction, dose response, CellTiter-Glo luminescence (AID 1117322); assay type: functional
[8] = cytotoxicity toward HCT116 cells – cell-based, CellTiter-Glo luminescence, IC50, dose response (AID 1117332); assay type: functional; conditions: HCT-116
[9] = SNU-C1 cell viability reduction, dose response, CellTiter-Glo luminescence (AID 1117323); assay type: functional, cell-based
[10] = HeLa 4N DNA content increase, dose response, cell-based, IC50 (AID 1117351); assay type: functional
[11] = cytotoxicity toward HT-29 cells – cell-based, CellTiter-Glo luminescence, IC50, dose response (AID 1117330); assay type: functional
[12] = CellTiter-Glo luminescent dose response of DLD-1 viability loss (AID 1117352); assay type: functional
[13] = HCT116 cell viability decrease, GSK3B pretreatment – CellTiter-Glo, IC50, dose response (AID 1117339); assay type: functional; conditions: HCT-116
[14] = target: Heat shock protein HSP 90-alpha (Homo sapiens, UniProt P07900); assay type: functional, organism-based
Vero [15] = assay: cells; assay type: functional, cell-based; conditions: Chlorocebus sabaeus
HSP90 = HSP90 (Plasmodium falciparum 3D7, UniProt Q8IL32); assay type: functional, organism-based
Vero [16] = assay: cells; assay type: functional; conditions: Chlorocebus sabaeus
[17] = cytotoxicity toward Colo320 cells – cell-based, CellTiter-Glo luminescence, IC50, dose response (AID 1117334); assay type: functional; conditions: COLO 320

Chain of HSP90 (Q8IL32 whole entry): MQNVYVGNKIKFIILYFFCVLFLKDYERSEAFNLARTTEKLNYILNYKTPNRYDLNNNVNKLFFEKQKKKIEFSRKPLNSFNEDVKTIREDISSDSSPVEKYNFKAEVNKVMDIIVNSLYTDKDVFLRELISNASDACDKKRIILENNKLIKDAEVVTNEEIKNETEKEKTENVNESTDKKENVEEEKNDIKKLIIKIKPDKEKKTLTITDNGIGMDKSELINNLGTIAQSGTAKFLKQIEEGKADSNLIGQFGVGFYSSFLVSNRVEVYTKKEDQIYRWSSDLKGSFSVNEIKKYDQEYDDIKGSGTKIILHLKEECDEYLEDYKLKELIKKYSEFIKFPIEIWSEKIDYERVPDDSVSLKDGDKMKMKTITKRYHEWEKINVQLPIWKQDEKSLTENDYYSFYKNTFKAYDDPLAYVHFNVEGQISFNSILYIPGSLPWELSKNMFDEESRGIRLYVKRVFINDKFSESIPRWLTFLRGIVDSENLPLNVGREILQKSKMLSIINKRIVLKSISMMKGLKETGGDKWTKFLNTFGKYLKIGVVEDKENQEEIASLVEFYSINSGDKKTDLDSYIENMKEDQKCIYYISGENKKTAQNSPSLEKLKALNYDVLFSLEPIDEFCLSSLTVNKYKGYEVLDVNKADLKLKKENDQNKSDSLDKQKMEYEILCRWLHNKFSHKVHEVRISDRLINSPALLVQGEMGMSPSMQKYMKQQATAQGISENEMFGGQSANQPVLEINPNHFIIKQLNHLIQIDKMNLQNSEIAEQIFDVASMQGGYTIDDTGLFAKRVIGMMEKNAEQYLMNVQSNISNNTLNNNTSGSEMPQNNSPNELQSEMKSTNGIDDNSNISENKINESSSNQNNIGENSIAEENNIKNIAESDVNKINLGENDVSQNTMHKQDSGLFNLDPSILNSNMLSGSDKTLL

Structure (SMILES) | IC50 [6] | IC50 [7] | IC50 [8] | IC50 [9] | IC50 [11] | IC50 [12] | IC50 [13] | further results
O=C(c1cccnc1)N1C[C@@H]2[C@H](c3ccccc31)[C@H](CO)N2CC1CCCC1 |  |  |  |  |  |  |  | AC50 [1]: > 47 µM (inactive); AC50 [2]: > 47 µM (inactive); AC50 [3]: > 60 µM (inactive)
COc1ccc2c3c([nH]c2c1)[C@H](CO)N(C(C)=O)CC31CCN(S(=O)(=O)c2ccccc2)CC1 |  |  |  |  |  |  |  | AC50 [4]: 9.86 µM (active)
CC(C)c1c(C(=O)Nc2ccccc2)c(-c2ccccc2)c(-c2ccc(F)cc2)n1CC[C@@H](O)C[C@@H](O)CC(=O)O [ATORVASTATIN CALCIUM] | > 20 µM (inactive) | > 20 µM (inactive) | > 20 µM (inactive) | > 20 µM (inactive) | > 20 µM (inactive) | > 20 µM (inactive) | 4.79 µM (active) | IC50 [5]: > 10 µM (inactive); IC50 [10]: > 10 µM (inactive)
Oc1c(Br)cc(Br)c2cccnc12 [BROXYQUINOLINE] | 0.132 µM (active) | 0.163 µM (active) | 0.193 µM (active) | 0.366 µM (active) | 5.25 µM (inactive) | 0.157 µM (active) | 0.183 µM (active) | AC50 [14]: 0.7 µM (active); IC50 (Vero [15]): > 25 µM (active); AC50 (HSP90): 0.373 µM (active); CC50 (Vero [16]): 18.7 µM (active); IC50 [17]: 0.114 µM (active)
